Assay results as given in patent US5792759A, “17-hydroxyiminoalkyl and 17-hydroxyiminomethylalkenyl cyclopentaneperhydrophenanthrene derivatives active on the cardiovascular system, a process for their preparation and pharmaceutical compositions containing the same” (Sigma-Tau Industrie Farmaceutiche Riunite S.p.A., priority 1995, dated 1998).
Read-outs that look alike come from different tables or passages of the source.

Columns and labels:
[1] = molecular target: T1, purified Na^+, K^+ -ATPase (Canis lupus familiaris, UniProt P50997); assay: inhibition of the activity of the purified Na+, K+-ATPase (% of hydrolysis of 32P-ATP); type: biochemical
T1 construct: Na^+, K^+ -ATPase receptor purified according to Jorghensen; from tissue
Source text: (§1) To test the affinity for the receptor site of the Na^+, K^+ -ATPase and the agonist or inhibitory activity on the enzyme, the following tests were used:
b) inhibition of the activity of the purified Na^+, K^+ -ATPase measured as % of hydrolysis of ^32 P-ATP in the presence and in the absence of the tested compound (Doucet A. et al., Am. J. Physiol., 1986, 251, F851).

[2] = molecular target: T2, Na^+, K^+ -ATPase receptor (Canis lupus familiaris, UniProt P50997); assay: displacement of the specific 3H-oubain binding from the Na+, K+-ATPase receptor; settings: 3H-oubain displacement from purified Na+,K+-ATPase; read-out: Binding ^3 H-oubain displacement -log IC50 (converted)
T2 construct: Na^+, K^+ -ATPase receptor purified according to Jorghensen; from tissue
Source text: as §1
a) displacement of the specific ^3 H-oubain binding from the Na^+, K^+ -ATPase receptor purified according to Jorghensen (Jorghensen P., BBA, 1974, 356, 36) and Erdmann (Erdmann E. et al., Arzneim. Forsh, 1984, 34,1314);

[3] = system: Na^+, K^+ -ATPase; settings: reported in DE 4,227,626; cited from earlier work
[4] = system: Na^+, K^+ -ATPase; settings: reported in DE 4,227,626; cited from earlier work; remark: listed apart in the source
[5] = purified Na+,K+-ATPase, 32P-ATP hydrolysis, read-out: Inhibitory activity -log IC50 (converted)

Structure (SMILES)	IC50 [1] [nM]	IC50 [2] [nM]	IC50 [1, 5] [nM]	affinity for Na^+, K^+ -ATPase [3]	inhibition of the enzyme Na^+, K^+ -ATPase [4]
CN(C)CCCON=C[C@H]1CC[C@H]2[C@@H]3CC=C4C[C@@H](O)CC[C@]4(C)[C@H]3CC[C@]12C (mixture of isomers) [I-l, (EZ)-17β-(3-dimethylaminopropoxyiminomethyl)-androst-5-en-3β-ol]	25100	1260			
C[C@]12CC[C@H]3[C@@H](CC=C4C[C@@H](O)CC[C@@]43C)[C@@H]1CC[C@@H]2C=NOCCCCN (mixture of isomers) [I-n, (EZ)-17β-(4-aminobutoxyiminomethyl)-androst-5-en-3β-ol]		2000	20000		
CC12CCC(O)CC1CCC1C2CCC2(C)C(C=NO)CCC12O (stereo not drawn) [17-hydroxyiminomethyl-5β-androstan-3β-14β-diol]				good affinity	inhibit the enzyme
CN(C)CCO/N=C/[C@H]1CC[C@H]2[C@@H]3CC[C@@H]4C[C@@H](OCCN5CCCC5)CC[C@]4(C)[C@H]3CC[C@]12C [I-b, (E)-17β-[2-dimethylaminoethoxyiminomethyl]-3β-[2-(1-pirrolidinyl)ethoxy]-5β-androstane]	7940	501			
C[C@]12CC[C@H]3[C@@H](CC=C4C[C@@H](O)CC[C@@]43C)[C@@H]1CC[C@@H]2/C=N/OCCN [I-e, (E)-17β-(2-aminoethoxyiminomethyl)-androst-5-en-3β-ol]		158	2000		
CN(C)CCO/N=C/[C@H]1CC[C@H]2[C@@H]3CC=C4C[C@@H](O)CC[C@]4(C)[C@H]3CC[C@]12C [I-f, (E)-17β-[2-dimethylaminoethoxyiminomethyl]-androst-5-en-3β-ol]	79400	5010			
C[C@]12CC[C@H]3[C@@H](CC=C4C[C@@H](O)CC[C@@]43C)[C@@H]1CC[C@@H]2/C=C/C=N/OCCN [I-g, (E,E)-17β-[3-(2-aminoethoxyimino)-1-propenyl]-androst-5-en-3β-ol]		251	1580		
CN(C)CCO/N=C/C=C/[C@H]1CC[C@H]2[C@@H]3CC=C4C[C@@H](O)CC[C@]4(C)[C@H]3CC[C@]12C [I-h, (E,E)-17β-[3-(2-dimethylaminoethoxyimino)-1-propenyl]-androst-5-en-3β-ol]	5010	1000			
CN(C)CCCO/N=C/C=C/[C@H]1CC[C@H]2[C@@H]3CC=C4C[C@@H](O)CC[C@]4(C)[C@H]3CC[C@]12C [I-i, (E,E)-17β-[3-(3-dimethylaminopropoxyimino)-1-propenyl]-androst-5-en-3β-ol]	2510	631			
C[C@]12CC[C@H]3[C@@H](CC=C4C[C@@H](O)CC[C@@]43C)[C@@H]1CC[C@@H]2/C=N/OCCCN [I-m, (E)-17β-(3-aminopropoxyiminomethyl)-androst-5-en-3β-ol]	3980	398			
